Laboratory results as given in the supplement of paper PMC10307832.

Tests used:
Experiment in all cases: relative viability (nuclei count vs DMSO), 5 days (fraction); higher = more cells survive
SGI-1776 + Lapatinib = compound: CN1CCC(CNc2ccc3ncc(-c4cccc(OC(F)(F)F)c4)n3n2)CC1 [SGI-1776] + CS(=O)(=O)CCNCc1ccc(-c2ccc3ncnc(Nc4ccc(OCc5cccc(F)c5)c(Cl)c4)c3c2)o1 [Lapatinib] (partner 2 µM)
Outline: (§1)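 Lung cancer cell lines, seeded in 1536-well plates, were treated the following day by pin tool with a single drug or with five library-drug doses (not always all listed) in √10 steps on top of a fixed anchor-drug dose. Cells were fixed and nuclei stained in one step after 5 days, and nuclei were counted. Relative viability is the nuclei count for treated wells divided by that for vehicle wells, reported as medians of duplicate plates.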

SGI-1776 + Olaparib = compound: CN1CCC(CNc2ccc3ncc(-c4cccc(OC(F)(F)F)c4)n3n2)CC1 [SGI-1776] + O=C(c1cc(Cc2n[nH]c(=O)c3ccccc23)ccc1F)N1CCN(C(=O)C2CC2)CC1 [Olaparib] (partner 8 µM)
Outline: as §1

[1] = compound: C1COCCN1C2=NC(=NC3=C2OC4=C3C=CC=N4)C5=CC(=CC=C5)NC(=O)C6=CN=C(C=C6)N + CC(=O)c1c(C)c2cnc(Nc3ccc(N4CCNCC4)cn3)nc2n(C2CCCC2)c1=O [Palbociclib] (partner 0.5 µM)
Outline: as §1

[2] = compound: C1COCCN1C2=NC(=NC3=C2OC4=C3C=CC=N4)C5=CC(=CC=C5)NC(=O)C6=CN=C(C=C6)N + CS(=O)(=O)N1CCN(Cc2cc3nc(-c4cccc5[nH]ncc45)nc(N4CCOCC4)c3s2)CC1 [Pictilisib] (partner 1 µM)
Outline: as §1

| Cell Line | relative viability (SGI-1776 + Lapatinib; first compound 0.08 µM) | relative viability (SGI-1776 + Lapatinib; first compound 0.8 µM) | relative viability (SGI-1776 + Lapatinib; first compound 2.53 µM) | relative viability (SGI-1776 + Lapatinib; first compound 8 µM) | relative viability (SGI-1776 + Olaparib; first compound 0.08 µM) | relative viability (SGI-1776 + Olaparib; first compound 0.8 µM) | relative viability (SGI-1776 + Olaparib; first compound 2.53 µM) | relative viability (SGI-1776 + Olaparib; first compound 8 µM) | relative viability ([1]; first compound 0.02 µM) | relative viability ([1]; first compound 0.06325 µM) | relative viability ([1]; first compound 0.2 µM) | relative viability ([1]; first compound 0.6325 µM) | relative viability ([1]; first compound 2 µM) | relative viability ([2]; first compound 0.02 µM) | relative viability ([2]; first compound 0.06325 µM) | relative viability ([2]; first compound 0.2 µM) | relative viability ([2]; first compound 0.6325 µM) | relative viability ([2]; first compound 2 µM) |
| --- | --- | --- | --- | --- | --- | --- | --- | --- | --- | --- | --- | --- | --- | --- | --- | --- | --- | --- |
| NCI-H661 | 0.509 | 0.533 | 0.646 | 0.439 | 0.733 | 0.754 | 0.843 | 0.846 | 0.396 | 0.402 | 0.387 | 0.375 | 0.374 | 0.441 | 0.395 | 0.392 | 0.375 | 0.163 |
| CAL-12T | 0.635 | 0.61 | 0.871 | 0.598 | 0.713 | 0.738 | 0.833 | 0.696 | 0.351 | 0.44 | 0.285 | 0.398 | 0.326 | 0.464 | 0.479 | 0.391 | 0.356 | 0.455 |
| NCI-H2342 | – | – | – | – | 0.525 | 0.445 | 0.454 | 0.49 | 0.525 | 0.522 | 0.505 | 0.512 | 0.515 | – | – | – | – | – |
| SW 900 | – | – | – | – | 0.792 | 0.886 | 1.15 | 0.636 | 0.52 | 0.555 | 0.525 | 0.548 | 0.345 | – | – | – | – | – |
| LC-2-ad | 1.04 | 0.95 | 1.01 | 0.88 | 0.755 | 0.776 | 0.756 | 0.696 | 0.518 | 0.484 | 0.469 | 0.526 | 0.396 | 0.441 | 0.51 | 0.526 | 0.443 | 0.487 |
| EPLC-272H | 1.04 | 0.889 | 1.1 | 0.771 | 1.01 | 0.922 | 0.737 | 0.348 | 0.313 | – | 0.313 | 0.37 | 0.329 | 0.292 | 0.297 | 0.264 | 0.308 | 0.288 |
| A-427 | 1.05 | 1.02 | 1.01 | 0.966 | 0.724 | 0.723 | 0.739 | 0.569 | 0.517 | 0.524 | 0.496 | 0.512 | 0.454 | 0.696 | 0.621 | 0.675 | 0.653 | 0.507 |
| NCI-H650 | 0.99 | 0.955 | 0.747 | 0.795 | 0.455 | 0.409 | 0.438 | 0.326 | 0.308 | 0.325 | 0.35 | 0.345 | 0.287 | 0.948 | 0.947 | 0.861 | 0.77 | 0.741 |
| NCI-H1993 | 0.839 | 0.958 | 0.841 | 0.636 | 0.989 | 0.943 | 1.01 | 0.955 | 0.683 | 0.72 | 0.543 | 0.632 | 0.467 | 0.76 | 0.708 | 0.861 | 0.791 | 0.85 |
| NCI-H358 | 0.434 | 0.469 | 0.352 | 0.292 | 0.648 | 0.605 | 0.569 | 0.403 | 0.119 | 0.14 | 0.137 | 0.145 | 0.108 | 0.287 | 0.302 | 0.288 | 0.328 | 0.296 |
